# How the values were obtained:
# Experiment in all cases: KINOMEscan competition binding
# Details in all cases: compound 10.0 µM
# ABL2 (human) = ABL2 (human) (UniProt P42684)
# ANKK1 (human) = ANKK1 (human) (UniProt Q8NFD2)
# AURKB (human) = AURKB (human) (UniProt Q96GD4)
# CAMK2G (human) = CAMK2G (human) (UniProt Q13555)
# EPHB3 (human) = EPHB3 (human) (UniProt P54753)
# ERBB3 (human) = ERBB3 (human) (UniProt P21860)
# FGFR4 (human) = FGFR4 (human) (UniProt P22455)
# [1] = test system: FLT3 (human), P36888 [ITD]
# [2] = test system: FLT3 (human), P36888 [R834Q]
# GRK1 (human) = GRK1 (human) (UniProt Q15835)
# GRK4 (human) = GRK4 (human) (UniProt P32298)
# IKBKB (human) = IKBKB (human) (UniProt O14920)
# ITK (human) = ITK (human) (UniProt Q08881)
# [3] = target: JAK3 JH1 catalytic (human) (UniProt P52333)
# [4] = test system: KIT (human), P10721 [D816V]
# LATS2 (human) = LATS2 (human) (UniProt Q9NRM7)
# [5] = test system: LRRK2 (human), Q5S007 [G2019S]
# MAP3K15 (human) = MAP3K15 (human) (UniProt Q6ZN16)
# MAP3K4 (human) = MAP3K4 (human) (UniProt Q9Y6R4)
# MAP3K7 (human) = MAP3K7 (human) (UniProt O43318)
# MAP4K1 (human) = MAP4K1 (human) (UniProt Q92918)
# MAPK10 (human) = MAPK10 (human) (UniProt P53779)
# MARK1 (human) = MARK1 (human) (UniProt Q9P0L2)
# MARK2 (human) = MARK2 (human) (UniProt Q7KZI7)
# MELK (human) = MELK (human) (UniProt Q14680)
# MTOR (human) = MTOR (human) (UniProt P42345)
# MYLK (human) = MYLK (human) (UniProt Q15746)
# NEK4 (human) = NEK4 (human) (UniProt P51957)
# PDGFRA (human) = PDGFRA (human) (UniProt P16234)
# PHKG2 (human) = PHKG2 (human) (UniProt P15735)
# PIM2 (human) = PIM2 (human) (UniProt Q9P1W9)
# PRKAA1 (human) = PRKAA1 (human) (UniProt Q13131)
# PRKG2 (human) = PRKG2 (human) (UniProt Q13237)
# [6] = test system: RET (human), P07949 [V804L]
# RIOK1 (human) = RIOK1 (human) (UniProt Q9BRS2)
# RIOK3 (human) = RIOK3 (human) (UniProt O14730)
# SBK1 (human) = SBK1 (human) (UniProt Q52WX2)
# SNRK (human) = SNRK (human) (UniProt Q9NRH2)
# STK11 (human) = STK11 (human) (UniProt Q15831)
# STK32A (human) = STK32A (human) (UniProt Q8WU08)
# STK32C (human) = STK32C (human) (UniProt Q86UX6)
# TNK1 (human) = TNK1 (human) (UniProt Q13470)
# MAPK10 (human), sequence (P53779 whole entry, looked up): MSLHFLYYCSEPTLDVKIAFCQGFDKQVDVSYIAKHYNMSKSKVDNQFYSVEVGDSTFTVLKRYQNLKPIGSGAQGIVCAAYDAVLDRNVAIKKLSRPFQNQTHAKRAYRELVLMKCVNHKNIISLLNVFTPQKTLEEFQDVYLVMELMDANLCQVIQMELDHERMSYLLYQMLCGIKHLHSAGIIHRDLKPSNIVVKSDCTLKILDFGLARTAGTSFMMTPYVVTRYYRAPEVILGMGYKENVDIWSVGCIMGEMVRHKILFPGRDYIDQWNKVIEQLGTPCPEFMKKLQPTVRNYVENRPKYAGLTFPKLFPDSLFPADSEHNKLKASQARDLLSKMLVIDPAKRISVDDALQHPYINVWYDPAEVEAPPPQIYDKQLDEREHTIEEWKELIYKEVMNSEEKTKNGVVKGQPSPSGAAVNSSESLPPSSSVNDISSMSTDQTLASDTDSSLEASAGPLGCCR
# NEK4 (human), sequence (P51957 whole entry, looked up): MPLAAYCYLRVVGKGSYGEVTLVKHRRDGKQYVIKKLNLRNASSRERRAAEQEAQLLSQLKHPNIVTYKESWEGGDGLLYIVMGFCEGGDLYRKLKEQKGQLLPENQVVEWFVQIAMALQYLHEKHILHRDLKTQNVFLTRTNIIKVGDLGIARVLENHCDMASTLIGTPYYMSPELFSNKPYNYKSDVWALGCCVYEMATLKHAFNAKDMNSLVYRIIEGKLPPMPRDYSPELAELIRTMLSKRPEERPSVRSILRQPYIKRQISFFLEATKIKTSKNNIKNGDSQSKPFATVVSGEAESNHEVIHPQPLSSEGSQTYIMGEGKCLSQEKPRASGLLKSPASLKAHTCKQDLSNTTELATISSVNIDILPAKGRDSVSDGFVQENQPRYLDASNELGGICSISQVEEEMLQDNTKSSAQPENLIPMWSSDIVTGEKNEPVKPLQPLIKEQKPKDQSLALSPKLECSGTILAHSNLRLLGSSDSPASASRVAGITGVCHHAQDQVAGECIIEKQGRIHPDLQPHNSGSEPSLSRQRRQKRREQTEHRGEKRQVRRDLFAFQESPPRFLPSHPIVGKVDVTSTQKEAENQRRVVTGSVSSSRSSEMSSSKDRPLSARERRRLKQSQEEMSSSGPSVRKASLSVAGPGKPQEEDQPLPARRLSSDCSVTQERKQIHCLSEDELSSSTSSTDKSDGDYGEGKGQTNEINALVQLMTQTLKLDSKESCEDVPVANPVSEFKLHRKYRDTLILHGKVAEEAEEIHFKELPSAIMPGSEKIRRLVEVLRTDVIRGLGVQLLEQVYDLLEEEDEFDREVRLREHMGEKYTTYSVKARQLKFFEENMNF
# KIT (human), P10721 [D816V], sequence (P10721 whole entry D816V, looked up): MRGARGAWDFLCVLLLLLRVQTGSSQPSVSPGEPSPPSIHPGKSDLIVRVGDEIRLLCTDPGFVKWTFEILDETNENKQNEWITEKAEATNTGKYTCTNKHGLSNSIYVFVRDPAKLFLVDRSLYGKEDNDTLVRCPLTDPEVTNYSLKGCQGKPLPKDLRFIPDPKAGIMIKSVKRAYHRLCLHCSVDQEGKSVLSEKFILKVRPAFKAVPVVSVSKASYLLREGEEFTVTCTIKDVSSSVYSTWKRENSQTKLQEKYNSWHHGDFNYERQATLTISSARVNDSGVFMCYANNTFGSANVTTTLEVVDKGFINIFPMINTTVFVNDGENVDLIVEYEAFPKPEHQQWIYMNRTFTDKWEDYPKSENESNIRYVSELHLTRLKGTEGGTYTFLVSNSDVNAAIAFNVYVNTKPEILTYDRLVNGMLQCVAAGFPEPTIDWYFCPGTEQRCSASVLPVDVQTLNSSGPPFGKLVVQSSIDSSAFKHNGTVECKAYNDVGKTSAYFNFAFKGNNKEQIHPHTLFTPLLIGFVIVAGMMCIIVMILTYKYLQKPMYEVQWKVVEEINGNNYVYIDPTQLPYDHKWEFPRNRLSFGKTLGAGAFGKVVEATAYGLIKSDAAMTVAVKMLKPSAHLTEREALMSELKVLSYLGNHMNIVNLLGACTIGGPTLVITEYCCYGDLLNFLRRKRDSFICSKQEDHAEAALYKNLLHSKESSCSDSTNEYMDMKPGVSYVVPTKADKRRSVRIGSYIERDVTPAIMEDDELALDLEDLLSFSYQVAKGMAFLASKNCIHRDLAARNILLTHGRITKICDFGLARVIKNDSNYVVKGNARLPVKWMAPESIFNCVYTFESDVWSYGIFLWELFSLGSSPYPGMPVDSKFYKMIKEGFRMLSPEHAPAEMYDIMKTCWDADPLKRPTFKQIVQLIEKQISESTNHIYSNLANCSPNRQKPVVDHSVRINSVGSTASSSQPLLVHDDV
# MAP3K7 (human), sequence (O43318 whole entry, looked up): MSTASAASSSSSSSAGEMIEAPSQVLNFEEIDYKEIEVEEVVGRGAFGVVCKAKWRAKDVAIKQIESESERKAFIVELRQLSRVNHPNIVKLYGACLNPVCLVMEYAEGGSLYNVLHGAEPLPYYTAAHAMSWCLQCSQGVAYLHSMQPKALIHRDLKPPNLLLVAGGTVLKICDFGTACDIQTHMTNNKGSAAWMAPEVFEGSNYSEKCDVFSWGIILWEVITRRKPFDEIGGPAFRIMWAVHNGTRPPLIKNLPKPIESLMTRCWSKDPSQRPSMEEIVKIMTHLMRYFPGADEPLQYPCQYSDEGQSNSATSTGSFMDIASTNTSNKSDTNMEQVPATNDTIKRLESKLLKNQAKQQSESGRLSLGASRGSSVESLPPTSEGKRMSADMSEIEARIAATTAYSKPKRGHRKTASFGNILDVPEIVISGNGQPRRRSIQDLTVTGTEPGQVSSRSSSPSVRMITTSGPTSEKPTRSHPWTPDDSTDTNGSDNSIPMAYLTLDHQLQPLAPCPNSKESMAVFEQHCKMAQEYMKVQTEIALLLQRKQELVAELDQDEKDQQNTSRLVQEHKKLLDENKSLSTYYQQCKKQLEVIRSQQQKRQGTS
# PRKAA1 (human), sequence (Q13131 whole entry, looked up): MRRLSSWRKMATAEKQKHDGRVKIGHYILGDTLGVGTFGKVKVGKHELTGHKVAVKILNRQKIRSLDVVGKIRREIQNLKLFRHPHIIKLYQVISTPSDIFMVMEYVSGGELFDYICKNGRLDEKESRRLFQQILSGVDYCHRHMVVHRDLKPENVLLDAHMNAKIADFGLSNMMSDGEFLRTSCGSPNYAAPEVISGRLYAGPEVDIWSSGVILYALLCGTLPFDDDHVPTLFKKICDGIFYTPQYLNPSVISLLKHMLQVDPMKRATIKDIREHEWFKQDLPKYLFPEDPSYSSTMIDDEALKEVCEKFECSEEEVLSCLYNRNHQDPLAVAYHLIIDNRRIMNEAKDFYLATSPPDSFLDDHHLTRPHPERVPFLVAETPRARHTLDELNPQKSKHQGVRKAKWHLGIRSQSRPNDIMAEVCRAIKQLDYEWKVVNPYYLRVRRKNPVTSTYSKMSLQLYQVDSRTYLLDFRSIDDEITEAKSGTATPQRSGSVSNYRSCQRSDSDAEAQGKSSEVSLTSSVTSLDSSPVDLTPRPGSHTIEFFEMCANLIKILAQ
# MAP3K4 (human), sequence (Q9Y6R4 whole entry, looked up): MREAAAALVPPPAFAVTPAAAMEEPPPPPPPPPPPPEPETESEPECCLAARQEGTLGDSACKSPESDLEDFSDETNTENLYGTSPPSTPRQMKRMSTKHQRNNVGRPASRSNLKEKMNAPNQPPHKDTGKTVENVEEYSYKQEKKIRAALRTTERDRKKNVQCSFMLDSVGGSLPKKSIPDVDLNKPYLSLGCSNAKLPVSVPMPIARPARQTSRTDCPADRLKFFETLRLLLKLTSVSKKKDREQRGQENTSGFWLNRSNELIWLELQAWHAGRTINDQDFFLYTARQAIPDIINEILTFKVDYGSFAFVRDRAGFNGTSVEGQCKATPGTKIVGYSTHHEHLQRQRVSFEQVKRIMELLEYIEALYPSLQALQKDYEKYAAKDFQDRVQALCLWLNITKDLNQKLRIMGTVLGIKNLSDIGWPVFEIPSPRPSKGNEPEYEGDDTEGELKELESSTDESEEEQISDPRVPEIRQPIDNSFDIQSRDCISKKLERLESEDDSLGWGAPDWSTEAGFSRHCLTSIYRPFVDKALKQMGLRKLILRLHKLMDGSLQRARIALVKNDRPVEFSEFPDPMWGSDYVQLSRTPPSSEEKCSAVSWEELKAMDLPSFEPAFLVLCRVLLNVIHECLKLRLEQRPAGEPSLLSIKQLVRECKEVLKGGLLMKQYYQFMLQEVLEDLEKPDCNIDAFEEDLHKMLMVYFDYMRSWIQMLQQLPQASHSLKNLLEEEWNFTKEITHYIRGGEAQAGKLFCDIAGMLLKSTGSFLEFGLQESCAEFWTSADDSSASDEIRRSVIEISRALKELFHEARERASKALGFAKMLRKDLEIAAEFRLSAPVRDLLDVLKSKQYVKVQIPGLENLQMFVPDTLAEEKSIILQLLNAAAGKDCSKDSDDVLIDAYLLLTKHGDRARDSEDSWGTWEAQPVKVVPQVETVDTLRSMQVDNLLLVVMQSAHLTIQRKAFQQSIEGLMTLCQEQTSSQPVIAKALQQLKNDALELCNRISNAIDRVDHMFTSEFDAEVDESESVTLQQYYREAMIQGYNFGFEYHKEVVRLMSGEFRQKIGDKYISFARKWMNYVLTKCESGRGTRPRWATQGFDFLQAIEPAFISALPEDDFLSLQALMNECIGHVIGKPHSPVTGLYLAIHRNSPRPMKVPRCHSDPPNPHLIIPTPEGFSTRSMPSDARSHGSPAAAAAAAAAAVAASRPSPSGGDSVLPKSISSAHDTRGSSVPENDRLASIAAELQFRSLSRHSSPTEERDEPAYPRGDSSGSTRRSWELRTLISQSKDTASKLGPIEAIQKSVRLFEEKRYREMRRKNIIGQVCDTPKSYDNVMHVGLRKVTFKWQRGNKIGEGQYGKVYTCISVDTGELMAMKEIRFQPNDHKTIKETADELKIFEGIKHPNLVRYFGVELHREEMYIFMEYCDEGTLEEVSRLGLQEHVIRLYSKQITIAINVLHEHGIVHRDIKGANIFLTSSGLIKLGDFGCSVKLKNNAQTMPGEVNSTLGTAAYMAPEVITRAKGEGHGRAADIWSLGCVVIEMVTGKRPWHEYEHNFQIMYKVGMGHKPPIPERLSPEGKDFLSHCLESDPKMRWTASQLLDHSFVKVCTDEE
compound,measurement,setting,value
Cc1cc([C@@H](C)Nc2ccccc2C(=O)O)c2nc(N3CCOCC3)cc(=O)n2c1,"kinase still bound, per cent of control",ABL2 (human),100%
same,"kinase still bound, per cent of control",ANKK1 (human),100%
same,"kinase still bound, per cent of control",AURKB (human),76%
same,"kinase still bound, per cent of control",CAMK2G (human),87%
same,"kinase still bound, per cent of control",EPHB3 (human),100%
same,"kinase still bound, per cent of control",ERBB3 (human),100%
same,"kinase still bound, per cent of control",FGFR4 (human),40%
same,"kinase still bound, per cent of control",[1],40%
same,"kinase still bound, per cent of control",[2],100%
same,"kinase still bound, per cent of control",GRK1 (human),81%
same,"kinase still bound, per cent of control",GRK4 (human),80%
same,"kinase still bound, per cent of control",IKBKB (human),95%
same,"kinase still bound, per cent of control",ITK (human),100%
same,"kinase still bound, per cent of control",[3],100%
same,"kinase still bound, per cent of control",[4],100%
same,"kinase still bound, per cent of control",LATS2 (human),97%
same,"kinase still bound, per cent of control",[5],90%
same,"kinase still bound, per cent of control",MAP3K15 (human),55%
same,"kinase still bound, per cent of control",MAP3K4 (human),100%
same,"kinase still bound, per cent of control",MAP3K7 (human),100%
same,"kinase still bound, per cent of control",MAP4K1 (human),90%
same,"kinase still bound, per cent of control",MAPK10 (human),66%
same,"kinase still bound, per cent of control",MARK1 (human),90%
same,"kinase still bound, per cent of control",MARK2 (human),100%
same,"kinase still bound, per cent of control",MELK (human),100%
same,"kinase still bound, per cent of control",MTOR (human),18%
same,"kinase still bound, per cent of control",MYLK (human),43%
same,"kinase still bound, per cent of control",NEK4 (human),94%
same,"kinase still bound, per cent of control",PDGFRA (human),100%
same,"kinase still bound, per cent of control",PHKG2 (human),67%
same,"kinase still bound, per cent of control",PIM2 (human),83%
same,"kinase still bound, per cent of control",PRKAA1 (human),62%
same,"kinase still bound, per cent of control",PRKG2 (human),100%
same,"kinase still bound, per cent of control",[6],100%
same,"kinase still bound, per cent of control",RIOK1 (human),75%
same,"kinase still bound, per cent of control",RIOK3 (human),100%
same,"kinase still bound, per cent of control",SBK1 (human),100%
same,"kinase still bound, per cent of control",SNRK (human),54%
same,"kinase still bound, per cent of control",STK11 (human),97%
same,"kinase still bound, per cent of control",STK32A (human),100%
same,"kinase still bound, per cent of control",STK32C (human),89%
same,"kinase still bound, per cent of control",TNK1 (human),91%

# — the kinase profiling compilation of Christmann-Franck et al. (2016)
